The source made the active and inactive calls. The calls are words filed in the database; no cut-off is given here.
Tests used:
[1] = target: Stimulator of interferon genes protein (Homo sapiens) (UniProt Q86WV6); test: Induction of STING-dependent gene expression in human THP1 cells assessed as IFNbeta mRNA expression at 2.5 to 20 uM incubated for 8 hrs by qRT-PCR analysis; format: cell-based; details: THP-1, filed as agonist, dose 2.5-20 µM
Vero = test: Cytotoxicity against interferon production defective African green monkey Vero cells assessed as cell viability measured after 72 hrs by MTT assay; format: functional, cell-based; details: Chlorocebus sabaeus
HT-1080 [2] = test: Cytotoxicity against human HT-1080 cells assessed as cell viability measured after 72 hrs by MTT assay; format: functional, cell-based; details: HT-1080, 72 h
[3] = system: Herpes simplex virus unknown type; test: Antiviral activity against HSV infected in human HT-1080 cells assessed as reduction viral protein ICP0 expression at 2.5 to 20 uM pretreated for 1 hr followed by infection measured after 18 hrs by Western blot analysis; format: functional, cell-based; details: dose 2.5-20 µM, time 19.0 hrs
[4] = target: Stimulator of interferon genes protein (Homo sapiens) (UniProt Q86WV6); test: Induction of wild type STING mediated TBK1 phosphorylation in human HeLa cells transfected with wild type STING at 10 uM measured after 5 hr by Western blot analysis; format: cell-based; details: filed as agonist
[5] = Antiviral activity against rhesus rotavirus assessed as inhibition of replication by qRT-PCR analysis; format: functional, Simian rotavirus A strain RRV
[6] = Antiviral activity against HSV infected in human HT-1080 cells assessed as reduction viral RNA expression pretreated for 1 hr followed by infection measured after 18 hrs by qRT-PCR analysis; format: functional, cell-based; details: Herpes simplex virus unknown type
Mus musculus [7] = test: Induction of immune-activation effect in wild type female BALB/c mouse assessed as increase in serum TNFalpha level at 15 to 30 mg/kg, ip measured after 24 to 48 hrs by ELISA relative to control; format: functional, organism-based; details: dose 15-30 mg/kg, time 24-48 hrs
[8] = target: Stimulator of interferon genes protein (Homo sapiens) (UniProt Q86WV6); test: Induction of STING-dependent gene expression in human HT-1080 cells assessed as IFNbeta mRNA expression at 20 uM incubated for 8 hrs by qRT-PCR analysis; format: cell-based; details: filed as agonist
[9] = target: Stimulator of interferon genes protein (Homo sapiens) (UniProt Q86WV6); test: Agonist activity at STING in human HT-1080 cells assessed as increase in ADU-S100-induced TBK1 phosphorylation at 2.5 to 20 uM measured after 5 hrs by Western blot analysis; format: cell-based; details: filed as agonist, dose 2.5-20 µM
[10] = target: Stimulator of interferon genes protein (Homo sapiens) (UniProt Q86WV6); test: Agonist activity at STING in human THP1 cells assessed as increase in TBK1 phosphorylation at 2.5 to 20 uM measured after 5 hrs by Western blot analysis; format: cell-based; details: THP-1, filed as agonist, dose 2.5-20 µM
[11] = target: Stimulator of interferon genes protein (Homo sapiens) (UniProt Q86WV6); test: Agonist activity at STING in human HT-1080 cells assessed as increase in TBK1 phosphorylation at 2.5 to 20 uM measured after 5 hrs by Western blot analysis; format: cell-based; details: filed as agonist, dose 2.5-20 µM
Mus musculus [12] = test: Induction of immune-activation effect in wild type female BALB/c mouse assessed as increase in serum IFNbeta level at 15 to 30 mg/kg, ip measured after 24 to 48 hrs by ELISA relative to control; format: functional, organism-based; details: dose 15-30 mg/kg, time 24-48 hrs
[13] = target: T1, Stimulator of interferon genes protein (Mus musculus) (UniProt Q3TBT3); test: Induction of STING dimerization in mouse embryonic fibroblast cells at 2.5 to 20 uM measured after 5 hrs by Western blot analysis; format: cell-based; details: MEF, filed as agonist, dose 2.5-20 µM
T1 sequence (whole entry): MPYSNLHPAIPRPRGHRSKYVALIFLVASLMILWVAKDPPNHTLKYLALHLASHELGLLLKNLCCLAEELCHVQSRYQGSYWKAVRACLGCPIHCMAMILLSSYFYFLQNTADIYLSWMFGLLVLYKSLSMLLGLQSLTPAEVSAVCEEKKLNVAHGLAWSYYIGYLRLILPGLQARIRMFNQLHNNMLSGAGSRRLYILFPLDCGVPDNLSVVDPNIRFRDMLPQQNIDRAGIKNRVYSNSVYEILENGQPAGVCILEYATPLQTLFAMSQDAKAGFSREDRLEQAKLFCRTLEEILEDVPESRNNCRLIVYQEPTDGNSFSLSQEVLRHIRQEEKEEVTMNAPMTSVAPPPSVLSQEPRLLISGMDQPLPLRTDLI

[14] = system: Stimulator of interferon genes protein (Homo sapiens), Q86WV6 [C148A]; test: Induction of STING C148A mutant (unknown origin) mediated TBK1 phosphorylation in human HeLa cells transfected with STING C148A mutant at 10 uM measured after 5 hr by Western blot analysis; format: cell-based; details: filed as agonist
[15] = target: Stimulator of interferon genes protein (Homo sapiens) (UniProt Q86WV6); test: Induction of STING-dependent gene expression in human HT-1080 cells assessed as increase in […] induced IFNbeta mRNA expression at 20 uM incubated for 8 hrs by qRT-PCR analysis; format: cell-based; details: filed as agonist
[16] = target: Stimulator of interferon genes protein (Homo sapiens) (UniProt Q86WV6); test: Agonist activity at STING in human HT-1080 cells assessed as increase in TBK1 phosphorylation at 20 uM measured after 5 hrs by Western blot analysis; format: cell-based; details: filed as agonist
HT-1080 [17] = test: Synergistic increase in HSV infection-induced TBK1 phosphorylation in human HT-1080 cells by Western blot analysis; format: functional, cell-based
[18] = target: T1, Stimulator of interferon genes protein (Mus musculus); test: Induction of STING dimerization in mouse BMDM cells at 2.5 to 20 uM measured after 5 hrs by Western blot analysis; format: cell-based; details: filed as agonist, dose 2.5-20 µM
HT-1080 [19] = test: Synergistic increase in […]-induced TBK1 phosphorylation in human HT-1080 cells by Western blot analysis; format: functional, cell-based
HT-1080 [20] = test: Effect on TBK1 phosphorylation in STING - knockout human HT1080 cells at 20 uM measured after 5 hrs by Western blot analysis; format: functional, cell-based
[21] = target: Stimulator of interferon genes protein (Homo sapiens) (UniProt Q86WV6); test: Agonist activity at STING in human HT-1080 cells assessed as increase in diABZI-induced TBK1 phosphorylation at 2.5 to 20 uM measured after 5 hrs by Western blot analysis; format: cell-based; details: filed as agonist, dose 2.5-20 µM
[22] = target: T1, Stimulator of interferon genes protein (Mus musculus); test: Agonist activity at STING in mouse BMDM cells assessed as increase in TBK1 phosphorylation at 2.5 to 20 uM measured after 5 hrs by Western blot analysis; format: cell-based; details: filed as agonist, dose 2.5-20 µM
THP-1 = test: Effect on STING level in human THP1 cells at 2.5 to 20 uM incubated for 8 hrs by Western blot analysis; format: functional, cell-based; details: dose 2.5-20 µM
[23] = target: T1, Stimulator of interferon genes protein (Mus musculus); test: Agonist activity at STING in mouse embryonic fibroblast cells assessed as increase in TBK1 phosphorylation at 2.5 to 20 uM measured after 5 hrs by Western blot analysis; format: cell-based; details: MEF, filed as agonist, dose 2.5-20 µM
[24] = target: Stimulator of interferon genes protein (Homo sapiens) (UniProt Q86WV6); test: Induction of wild type STING dimerization in human HeLa cells transfected with wild type STING at 10 uM measured after 5 hr by Western blot analysis; format: cell-based; details: filed as agonist
[25] = system: Stimulator of interferon genes protein (Homo sapiens), Q86WV6 [C91S]; test: Induction of oligomerization of STING C91S (unknown origin) mutant in human HeLa cells transfected with wild type STING assessed as intracellular puncta formation at 10 uM measured after 1 hr by DAPI staining based immunofluorescence microscopy; format: cell-based; details: filed as agonist
[26] = target: Stimulator of interferon genes protein (Homo sapiens) (UniProt Q86WV6); test: Induction of STING-dependent gene expression in human THP1 cells assessed as TNFalpha mRNA expression at 2.5 to 20 uM incubated for 8 hrs by qRT-PCR analysis; format: cell-based; details: THP-1, filed as agonist, dose 2.5-20 µM
BMDM = test: Effect on STING level in mouse BMDM cells at 2.5 to 20 uM incubated for 8 hrs by Western blot analysis; format: functional, cell-based; details: dose 2.5-20 µM

Chain of Stimulator of interferon genes protein (Homo sapiens) (Q86WV6 whole entry): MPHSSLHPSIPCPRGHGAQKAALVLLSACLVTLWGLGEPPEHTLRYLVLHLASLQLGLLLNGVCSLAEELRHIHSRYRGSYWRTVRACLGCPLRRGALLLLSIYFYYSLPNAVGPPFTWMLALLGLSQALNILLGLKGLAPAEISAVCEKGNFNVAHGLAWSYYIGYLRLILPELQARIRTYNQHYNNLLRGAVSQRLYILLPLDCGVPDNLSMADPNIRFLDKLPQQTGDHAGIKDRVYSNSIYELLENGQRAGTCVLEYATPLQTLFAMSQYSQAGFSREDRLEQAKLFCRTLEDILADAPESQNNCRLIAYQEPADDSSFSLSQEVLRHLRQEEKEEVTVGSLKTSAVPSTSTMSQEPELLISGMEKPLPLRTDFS
Chain of Stimulator of interferon genes protein (Homo sapiens), Q86WV6 [C91S] (Q86WV6 whole entry C91S): as the sequence (Q86WV6 whole entry) above, with C91S counted along it
Chain of Stimulator of interferon genes protein (Homo sapiens), Q86WV6 [C148A] (Q86WV6 whole entry C148A): as the sequence (Q86WV6 whole entry) above, with C148A counted along it

With O=C(NCCCCCNC(=O)c1ccc([N+](=O)[O-])o1)c1ccc([N+](=O)[O-])o1 the Activity [1] was “Active”, the IC50 (Vero) was 28.4 µM and the IC50 (HT-1080 [2]) was 9.31 µM. The Activity [3] was “Active”, the Activity [4] was “Active” and the EC50 [5] was 6.8 µM. For the same compound, the EC50 [6] was 6.15 µM, the Activity (Mus musculus [7]) was “Active” and the Activity [8] was “Active”. The Activity [9] was “Active”, the Activity [10] was “Active” and the Activity [11] was “Active”. The Activity (Mus musculus [12]) was “Active”, the Activity [13] was “Active” and the Activity [14] was “Active”. For the same compound, the Activity [15] was “Active”, the Activity [16] was “Active” and the Activity (HT-1080 [17]) was “inactive”. For the same compound, the Activity [18] was “Active”, the Activity (HT-1080 [19]) was “Active” and the Activity (HT-1080 [20]) was “inactive”. The Activity [21] was “Active”, the Activity [22] was “Active” and the Activity (THP-1) was “inactive”. For the same compound, the Activity [23] was “Active”, the Activity [24] was “Active” and the Activity [25] was “Active”. The Activity [26] was “Active” and the Activity (BMDM) was “inactive”.

Source: ChEMBL document CHEMBL5385872, “Design and syntheses of a bimolecular STING agonist based on the covalent STING antagonist” (Eur J Med Chem, 2023)
